Experimental data taken from article PMC3895372 (Nature communications, 2014).

Columns and labels:
[1] = molecular target: T1, µ-calpain (Sus scrofa, UniProt P35750); assay: fluorogenic Suc-Leu-Tyr-AMC hydrolysis assay with purified enzyme; assay type: biochemical
T1 sequence (P35750 1-714): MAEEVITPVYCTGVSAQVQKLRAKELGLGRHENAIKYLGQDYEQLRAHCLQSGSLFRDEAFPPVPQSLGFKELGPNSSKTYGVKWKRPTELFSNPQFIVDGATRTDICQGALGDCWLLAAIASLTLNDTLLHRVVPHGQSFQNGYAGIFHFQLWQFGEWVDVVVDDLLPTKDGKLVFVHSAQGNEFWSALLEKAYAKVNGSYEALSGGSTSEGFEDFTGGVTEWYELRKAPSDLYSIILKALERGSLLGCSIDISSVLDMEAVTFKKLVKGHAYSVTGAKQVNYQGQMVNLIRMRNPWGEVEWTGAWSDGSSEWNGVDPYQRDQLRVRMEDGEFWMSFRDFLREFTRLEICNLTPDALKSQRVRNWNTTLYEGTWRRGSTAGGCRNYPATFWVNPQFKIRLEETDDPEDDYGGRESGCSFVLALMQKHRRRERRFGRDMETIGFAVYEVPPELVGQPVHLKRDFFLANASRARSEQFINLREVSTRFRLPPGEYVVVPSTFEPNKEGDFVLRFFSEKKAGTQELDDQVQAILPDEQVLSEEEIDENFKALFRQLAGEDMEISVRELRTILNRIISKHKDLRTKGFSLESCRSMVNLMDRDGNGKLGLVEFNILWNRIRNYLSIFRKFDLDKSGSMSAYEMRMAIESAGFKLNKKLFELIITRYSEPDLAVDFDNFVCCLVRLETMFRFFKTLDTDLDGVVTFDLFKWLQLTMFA
T1 sequence (P04574 1-266 partner): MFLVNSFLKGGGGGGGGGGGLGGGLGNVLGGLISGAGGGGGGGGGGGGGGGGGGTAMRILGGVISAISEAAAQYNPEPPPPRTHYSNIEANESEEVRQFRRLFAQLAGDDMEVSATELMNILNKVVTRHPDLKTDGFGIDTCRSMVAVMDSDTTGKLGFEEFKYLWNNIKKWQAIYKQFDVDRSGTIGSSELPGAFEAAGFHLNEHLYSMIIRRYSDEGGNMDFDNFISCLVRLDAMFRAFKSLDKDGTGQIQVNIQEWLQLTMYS

[2] = molecular target: T2, m-calpain (Rattus norvegicus, UniProt Q07009); assay: as above; assay type: biochemical
T2 sequence (Q07009 20-700): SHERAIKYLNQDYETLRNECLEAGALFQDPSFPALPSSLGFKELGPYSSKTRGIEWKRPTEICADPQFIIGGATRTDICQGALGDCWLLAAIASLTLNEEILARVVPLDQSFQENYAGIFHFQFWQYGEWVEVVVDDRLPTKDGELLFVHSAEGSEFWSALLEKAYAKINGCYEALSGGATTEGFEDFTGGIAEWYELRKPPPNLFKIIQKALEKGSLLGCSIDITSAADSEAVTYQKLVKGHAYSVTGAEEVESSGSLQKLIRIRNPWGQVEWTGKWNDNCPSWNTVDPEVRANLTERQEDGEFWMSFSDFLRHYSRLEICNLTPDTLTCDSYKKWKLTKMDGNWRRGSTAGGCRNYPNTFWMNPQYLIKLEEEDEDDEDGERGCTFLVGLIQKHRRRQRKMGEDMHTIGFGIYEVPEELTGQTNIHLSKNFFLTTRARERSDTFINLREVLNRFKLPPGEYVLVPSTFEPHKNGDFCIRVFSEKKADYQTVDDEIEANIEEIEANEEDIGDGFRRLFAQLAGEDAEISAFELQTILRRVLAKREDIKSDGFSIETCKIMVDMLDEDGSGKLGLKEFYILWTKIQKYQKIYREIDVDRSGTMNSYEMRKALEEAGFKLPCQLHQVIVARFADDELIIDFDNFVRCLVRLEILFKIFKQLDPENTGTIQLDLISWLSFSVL
T2 sequence (Q64537 1-270 partner): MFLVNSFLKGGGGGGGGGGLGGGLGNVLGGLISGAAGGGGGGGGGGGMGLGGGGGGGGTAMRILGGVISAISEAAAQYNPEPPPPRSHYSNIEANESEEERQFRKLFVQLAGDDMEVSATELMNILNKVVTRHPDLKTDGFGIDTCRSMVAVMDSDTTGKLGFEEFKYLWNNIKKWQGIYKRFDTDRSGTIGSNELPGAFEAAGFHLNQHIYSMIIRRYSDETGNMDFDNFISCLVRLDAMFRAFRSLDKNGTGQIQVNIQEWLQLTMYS

## CC[C@H](NC(=O)[C@H](CC(C)C)NC(=O)OCc1ccccc1)C(=O)C(=O)NCc1cc(OC)cc(OC)c1 [mCalp-I]
[1]
  Ki: 0.94 µM
[2]
  Ki: 0.025 µM
